# Data taken from patent US20020146823A1, “Method for promoting hematopoietic and mesenchymal cell proliferation and differentiation” (The University of Southern California, priority 1997, published 2002).
# Assays:
# rat bone marrow MSC = experiment: Alkaline phosphatase expression by MSC in osteogenic medium; type: cell-based, Sprague Dawley rats; conditions: osteogenic medium 4 days
# Experimental: Bone marrow from female Sprague Dawley rats were harvested by flushing the femur with medium. The cells were placed in culture dishes […], allowed to adhere overnight, and then placed in DMEM-LG medium containing antibiotics and 10% fetal calf serum together with varying concentrations of AII. At various times after culture initiation, the cells were washed with Tyrode's buffer and placed in osteogenic medium (DMEM-LG containing 10% fetal calf serum, 100 nM dexamethasone and 0.05 mM ascorbic acid) for 4 days prior to assessment of the level of alkaline phosphatase activity per well. Briefly, the wells were washed with Tyrode's buffer and 1 ml alkaline phosphatase substrate solution (50 mM glycine, pH 10.5, containing 1 mM magnesium chloride and 2.5 mM p-nitrophenyl phosphate) to each well. Fifteen minutes after addition of this aqueous substrate, the buffer was removed from the culture and mixed with 1 ml of 1N sodium hydroxide to stop the reaction. The absorbance of the resultant mixture at […] was then determined via spectroscopy. The level of alkaline phosphatase activity is expressed as the level of absorbance per culture dish.
# [1] = system: murine bone marrow stem cells; conditions: cited from earlier work
# rat MSC = experiment: Rat mesenchymal stem cell proliferation in bone marrow cultures; type: cell-based, Sprague Dawley rats; conditions: 1 to 100 μg/ml
# Experimental: These studies were conducted to determine the effect that AII would have on the proliferation of MSC. Bone marrow cells were harvested from the femur and tibia of female Sprague Dawley rats by flushing the bones with Dulbecco's Minimal Essential Medium-High Glucose (“DMEM-HG”) with a syringe and an 18 gauge needle. These cells were cultured in 24 well plates at 5×10^3 cells/mm^2 in DMEM-HG containing selected lots of fetal calf serum (FCS) and antibiotics (complete medium) at 37° C. incubator containing 5% CO2 in air. Twenty-four hours after the initiation of the cultures the medium and nonadherent cells were aspirated and fresh medium was added. To each of these several wells, complete medium with (1 to 100 μg/ml) or without AII was added. The migration of cells from the clones and their proliferation was followed by microscopic examination. Every 4 days the old medium was removed and fresh medium was added to the cultures. These studies were conducted to determine the effect that inclusion of All analogues and fragments in the cell culture of MSC would have on the proliferation of these cells. Bone marrow cells were harvested from the femur and tibia of female Sprague Dawley rats by flushing the bones with Dulbecco's Minimal Essential Medium-High Glucose (“DMEM-HG”) with a syringe and an 18 gauge needle. […]
# [2] = system: rat peritoneal macrophages; experiment: Respiratory burst (hydrogen peroxide generation) in rat peritoneal macrophages; type: cell-based; conditions: alone and in response to PMA; 4 hours exposure
# Experimental: The respiratory burst of leukocytes (macrophages and polymorphonuclear neutrophils) is one component of the mediator system used to kill bacteria. As with phagocytosis, the level of this respiratory burst activity in resident macrophages is low. […] Studies were conducted to assess the effect of in vitro exposure of murine or rat peritoneal macrophages and human peripheral blood mononuclear cells (PBMC) to various concentrations of AII on the capacity to generate hydrogen peroxide via the respiratory burst system. For the human studies, five different donors were examined.
# The murine or rat peritoneal cells were harvested by lavage with 5-15 ml of cold PBS with 0.5% bovine serum albumin. The human PBMC were harvested by venipuncture from normal human volunteers and isolated from peripheral blood by Ficoll Hypaque density centrifugation. After isolation, the cells were resuspended at 1×10^6 cells/ml and placed at 100 μl per well into 96 well plates. The cells were incubated with various concentrations of AII or AII analogues and fragments for 4 hours at 37° C. The cells were then preloaded with a fluorescent probe for hydrogen peroxide, 2,7 dichlorofluorescein acetate, which is nonfluorescent in the absence of hydrogen peroxide. […] One hour after stimulation the level of fluorescence produced was measured on a Cytofluor 2350 multiwell fluorometer.
# [3] = system: Rat Peritoneal Macrophages; experiment: Phagocytic capability of rat peritoneal macrophages (opsonized yeast ingestion); type: cell-based, Sprague Dawley rats
# Experimental: Resident peritoneal macrophages have very little phagocytic activity. Exposure of macrophages to inflammatory or activating agents will increase this macrophage function. Resident peritoneal macrophages were harvested from C57B1/6 mice or Sprague Dawley rats and resuspended at a concentration of 1×10^6 cells/ml in phosphate buffered saline (PBS). Five separate 0.5 ml cell aliquots were placed on a glass coverslip in a 35 mm petri dish. Prior to incubation, either 0.5 ml of PBS, AII, or AII analogues or fragments at between 1-1000 ug/ml final concentration was added to the individual cover slips. The dishes containing the cover slips were then incubated at 37° C. for 4 hours, after which the cover slips were washed 3 to 6 times with PBS. Opsonized yeast particles (Sigma Chemical Co.) (yeast opsonized with adult serum from the same species as that under study) were added to the cover slips and incubated for 2 hours, after which the cover slips were again washed with PBS and inverted onto a glass slide. The number of macrophages that ingested yeast and the number of yeast per macrophage ingested was then determined microscopically. At least 100 macrophages per coverslip were counted. The data from this study are summarized in Tables 3 and 4 and FIGS. 1 and 2.
substance,measurement,setting,value
"Asp-Arg-Val-Tyr-Ile-His-Pro-Phe (DRVYIHPF; printed: Asp-Arg-Val-Tyr-Ile-His-Pro-Phe) [AII, octapeptide present in humans and other species; known pressor agent, commercially available]",proliferation of cells that express alkaline phosphatase,rat bone marrow MSC,can accelerate the proliferation of cells that express alkaline phosphatase
same,formation of colonies,[1]; absence of exogenous colony stimulating factors,increases the formation of colonies
same,number and size of colonies formed,[1]; lineage-negative bone marrow cells expressing Sca1,increased the number and size of colonies formed only in the presence of exogenous colony stimulating factors
same,number of MSC,rat MSC; all time points examined,increase in the number of MSC in a concentration dependent manner
same,number of sites from which MSC were migrating (CFU) and size (number of cells) of colonies formed,rat MSC; complete medium with serum,significantly increased
same,ability of leukocytes to generate hydrogen peroxide,[2],increased the ability of leukocytes to generate hydrogen peroxide both alone and in response to stimulation with PMA
same,#/Cell,[3]; peptide 100 μg/ml,1.14
same,% w/Yeast,[3]; peptide 100 μg/ml,35.7%
same,Number of Macrophages with Yeast (Yeast Number) 0,[3]; peptide 100 μg/ml,90
same,Number of Macrophages with Yeast (Yeast Number) 1-3,[3]; peptide 100 μg/ml,30
same,Number of Macrophages with Yeast (Yeast Number) ≧7,[3]; peptide 100 μg/ml,0
same,#/Cell,[3]; peptide 1000 μg/ml,2.86
same,% w/Yeast,[3]; peptide 1000 μg/ml,70.4%
same,Number of Macrophages with Yeast (Yeast Number) 0,[3]; peptide 1000 μg/ml,50
same,Number of Macrophages with Yeast (Yeast Number) 1-3,[3]; peptide 1000 μg/ml,54
same,Number of Macrophages with Yeast (Yeast Number) 4-6,[3]; peptide 1000 μg/ml,40
same,Number of Macrophages with Yeast (Yeast Number) ≧7,[3]; peptide 1000 μg/ml,25
